Measured values reported in patent EP4684783A1, “COSMETIC COMPOSITION FOR PREVENTING, ALLEVIATING, OR AMELIORATING HAIR LOSS” (LG Chem, Ltd., priority 2023, dated 2025).
Values joined by “and” are separate entries in the source; they are usually repeats but may differ in a detail not shown here. Equal values may be shown once. Read-outs that look alike come from different tables or passages of the source.

Key:
[1] = test system: human hair follicles; assay: Ratio of hair follicle telogen in DHT-treated cultured hair follicles (visual evaluation); settings: for Telogen ratio (%): 6 days
Protocol: (§1) The ratio of hair follicle telogen and the expression level of hair follicle cell proliferation-related factor proteins depending on whether 3-hydroxypropionic acid was applied or not were evaluated according to the following methods.
(§2) The human hair follicles or scalp tissues provided for research purposes (IRB No. 4-2023-1052; Institutional Review Board, Severance Medical Center, Yonsei University College of Medicine) were washed several times with PBS to remove residual impurities, and randomly divided into each group. The hair follicles and scalp tissues were cultured in Williams' Medium E (Sigma) supplemented with 2 mM L-glutamine (Sigma-Aldrich), 10 µg/ml insulin (Sigma-Aldrich), 100 ng/ml hydrocortisone (Sigma-Aldrich), 0.1% fungizone (Gibco, USA), and 1% antibioticantimycotic (Gibco), and 1% […] (Gibco) at 37°C in 5% CO2.
To induce the telogen in the anagen hair follicle tissue, the test composition was treated with 1 µM dihydrotestosterone (DHT). The medium was replaced every 3 days and cultured for 6 days. The ratio of hair follicle telogen was visually evaluated based on the ratio of hair follicles in which the telogen occurred for 6 days compared to day 0.

[2] = test system: hair follicle cells; assay: Ki67 immunofluorescence staining of cultured scalp tissue (hair follicle cell proliferation); design: species or system human; settings: for Ki67 positive cells (%): scalp tissue, 24 hours
Protocol: as §1, §2
After the scalp tissue was treated with the test composition for 24 hours, the obtained tissue was prepared into a frozen block, and frozen sectioned at a thickness of 5 µm using a Cryostat microtome (Leica Biosystems, Germany), and the tissue sections were attached onto Silane-coated slides. Then, in order to stain the tissue sections and photograph the cross sections, the OCT compound was removed, a primary antibody specifically binding to Ki67 (Anti-Ki67 antibody: ab15580; abcam) was attached, and a fluorescently labeled secondary antibody specifically binding to this primary antibody (Goat pAb to Rb IgG (H+L): a11012; Invitrogen) was attached. Finally, the tissues were fixed with a fixative containing blue fluorescent DAPI (VECTASHIELD® mounting medium with DAPI; Vector laboratories) that stains the cell nucleus, and then images were taken at 100x magnification using a fluorescence microscope (M2; Zeiss). The percentage of Ki67-expressing cells among the total cells labeled with DAPI was measured from the captured images, and a higher value means a higher number of Ki67-expressing cells.

[3] = Cell viability (WST / CCK-8 absorbance at 450 nm); format: cell-based, Human; settings: human, follicle dermal papilla cells, 24 hours
Protocol: (§3) Human follicle dermal papilla cells (PromoCell GmbH) were cultured in human follicle dermal papilla cells growth medium(PromoCell GmbH) supplemented with fetal calf serum(FCS), bovine pituitary extract(BPE), basic fibroblast growth factor(bFGF), and insulin at 37°C and 5% CO2.
(§4) […] WST substrate solution (high sensitivity water soluble tetrazolium salt, CCK-8, DOJINDO) was then added to the medium, and cultured at 37°C for 2 hours.
(§5) During the culture, a […] formazan was produced by the reaction between WST and intracellular dehydrogenase, and the absorbance (OD, wavelength 450 nm) was measured. The cell viability was calculated according to the following Equation 1 below, and the results are shown in Table 1 below. [formula]
(§6) In Equation 1, the 'experimental group' is the group treated with an aqueous solution containing 3HP; the 'control group' is the medium containing only the WST substrate; and the 'negative control group' is the group in which a medium containing WST substrate was treated with an aqueous solution of 0% 3HP.

[4] = test system: Human follicle dermal papilla cells; assay: Cell viability (WST / CCK-8 absorbance at 450 nm); format: cell-based; settings: for Human follicle dermal papilla cell viability (%): 24 hours, single runs (Once / Two times / Three times), 1440 min
Protocol: as §3, §4, §5, §6

[5] = test system: Srd5α1; assay: 5α-reductase gene expression by real-time PCR (relative quantification vs GAPDH); format: cell-based, Human; settings: for mrna remaining at 0.0125 %: 3HP 0.0125 %; for mrna remaining at 0.025 %: 3HP 0.025 %
Protocol: as §3
(§7) The cultured human follicle dermal papilla cells were divided into 5x10^4 cells in a 96-well plate, and when the cells reached 80% or more confluency, they were treated with the 3-hydroxypropionic acid aqueous solution according to Preparation Example 1 at four concentrations (3HP concentrations: 0 wt.%, 0.0125 wt.%, 0.025 wt.%, and 0.05 wt.%), and then cultured for 24 hours. Then, the total RNA in the cells was extracted, and cDNA was synthesized from the extracted RNA. The synthesized cDNA was subjected to real-time polymerase chain reaction. And, the relative quantitative analysis of each gene was performed using GAPDH (one of the house-keeping genes). The relative quantification (RQ) value was calculated according to the following Equation 2. RQ = 2−ΔΔCT; ΔΔCT = ΔCT (Treatment)−ΔCT (Control); ΔCT = CT (Targetgene)−CT (House-keepinggene) [formula]
(§8) In the Equation 2, 'Treatment' is the group treated with 3HP; 'Control' is the group not treated with 3HP; 'Target gene' is Srd5α1 and TGF-β1, and 'House-keeping gene' is GAPDH.

[6] = test system: TGF-β1; assay: TGF-β1 gene expression by real-time PCR (relative quantification vs GAPDH); format: cell-based, Human; settings: for mrna remaining at 0.0125 %: 3HP 0.0125 %; for mrna remaining at 0.025 %: 3HP 0.025 %
Protocol: as §3, §7, §8

[7] = Homo sapiens, 24 h, 24 hours, human follicle dermal papilla cells, Average, read-out: 5α-reductase gene expression level (RQ)
[8] = Homo sapiens, 24 h, 24 hours, human follicle dermal papilla cells, single runs (Once / Two times / Three times), read-out: 5α-reductase gene expression level (RQ)
[9] = Homo sapiens, 24 h, 24 hours, human follicle dermal papilla cells, Average, read-out: TGF-β1 gene expression level (RQ)
[10] = Homo sapiens, 24 h, 24 hours, human follicle dermal papilla cells, single runs (Once / Two times / Three times), read-out: TGF-β1 gene expression level (RQ)

O=C(O)CCCC[C@@H]1SC[C@@H]2NC(=O)N[C@@H]21 [Biotin, reference compound]
Telogen ratio (%) ([1]; DHT + 2 ng/ml Biotin): 10.000%
Ki67 positive cells (%) ([2]; 2 ng/ml Biotin): 44.631%

C[C@]12CCC(=O)C[C@@H]1CC[C@@H]1[C@@H]2CC[C@]2(C)[C@@H](O)CC[C@@H]12 [DHT, dihydrotestosterone, reference compound]
Telogen ratio (%) ([1]; 1 µM DHT alone (DHT control group)): 40.000%

O=C(O)CCO [Example 3HP, 3-hydroxypropionic acid]
viability at 24 h ([3]; 3HP 0.0125 %, Average): 92.6%
viability at 24 h ([3]; 3HP 0.0125 %, single runs (Once / Two times / Three times)): 90.8%
viability at 24 h ([3]; 3HP 0.025 %, Average): 86.7%
viability at 24 h ([3]; 3HP 0.025 %, single runs (Once / Two times / Three times)): 86.6%
viability at 24 h ([3]; 3HP 0.05 %, Average): 85.8%
viability at 24 h ([3]; 3HP 0.05 %, single runs (Once / Two times / Three times)): 86.5%
viability at 24 h ([3]; 3HP 0.1%, Average): 75.3%
viability at 24 h ([3]; 3HP 0.1%, single runs (Once / Two times / Three times)): 77.5%
Human follicle dermal papilla cell viability (%) ([4]; 3HP 0.0125 %): 92.037% and 95.062%
Human follicle dermal papilla cell viability (%) ([4]; 3HP 0.025 %): 84.153% and 89.275%
Human follicle dermal papilla cell viability (%) ([4]; 3HP 0.05 %): 86.027% and 85.031%
Human follicle dermal papilla cell viability (%) ([4]; 3HP 0.1%): 72.756% and 75.694%
cell viability ([4]; under the treatment concentrations of Table 2, result in words): high
mrna remaining at 0.0125 % [5, 7]: 86.6%
mrna remaining at 0.0125 % [5, 8]: 85.6%
mrna remaining at 0.025 % [5, 7]: 88.8%
mrna remaining at 0.025 % [5, 8]: 87.1%
mrna remaining at 0.05 % ([5]; Homo sapiens, 24 h, 3HP 0.05 %, 24 hours, human follicle dermal papilla cells, Average, read-out: 5α-reductase gene expression level (RQ)): 127%
expression of the 5α-reductase gene ([5]; under the treatment concentration of Table 3, result in words): significantly inhibited
mrna remaining at 0.0125 % [6, 9]: 80.2%
mrna remaining at 0.0125 % [6, 10]: 75.6%
mrna remaining at 0.025 % [6, 9]: 69.4%
mrna remaining at 0.025 % [6, 10]: 70.4%
mrna remaining at 0.05 % ([6]; Homo sapiens, 24 h, 3HP 0.05 %, 24 hours, human follicle dermal papilla cells, Average, read-out: TGF-β1 gene expression level (RQ)): 130%
expression of the TGF-β1 gene ([6]; under the treatment concentration of Table 4, result in words): significantly inhibited
hair follicle telogen ratio ([1]; 0.1%, 0.5%, and 1.0% 3HP compared to the DHT control group, result in words): significantly decreased
Telogen ratio (%) ([1]; DHT + 0.1% 3HP): 6.250%
Telogen ratio (%) ([1]; DHT + 0.5% 3HP): 0.000%
Telogen ratio (%) ([1]; DHT + 1.0% 3HP): 0.000%
proliferation effect of hair follicle cells ([2]; 0.1% 3HP compared to the negative control group, Ki67 immunofluorescence staining, result in words): significantly increased
Ki67 positive cells (%) ([2]; 0.1% 3HP): 48.745%

CC(C)(C)NC(=O)[C@H]1CC[C@H]2[C@@H]3CC[C@H]4NC(=O)C=C[C@]4(C)[C@H]3CC[C@]12C [Finasteride, reference compound]
Telogen ratio (%) ([1]; DHT + 0.5 mM Finasteride): 0.000%

Nc1cc(N2CCCCC2)nc(N)[n+]1[O-] [Minoxidil, reference compound]
Ki67 positive cells (%) ([2]; 0.1 mM Minoxidil): 47.187%
